Assay results as given in US9480674B2, “Method and composition for treating acne” (THESAN PHARMACEUTICALS, INC., priority 2012, dated 2016).
Entries after “also recorded” stand apart in the source; their conditions may differ. Where two headings read alike, the source gives them in different places.

Columns and labels:
[1] = system: CYP1A1 expression in sebaceous glands; assay: Focal expression of AhR activation (CYP1A1 immunohistochemistry) in sebaceous gland cell types of topically treated mouse ears
Excerpt: The embodiment described here entails treating the ears of C57BL/6 mice via the topical route, following established protocols to determine dose-response and time-response relationships, with sebum reducing AhR pathway agonists previously characterized for their in vivo activation of the receptor, using, for example the EROD and CALUX methods which are widely used in this field (see Table 1).
Following topical treatment, the ears are sampled, and CYP1A1 expression is examined by immunohistochemical analysis using a specific antibody.
The study diagrammed in FIG. 1 and for which photomicrographs are provided in FIG. 2 entailed treating mice daily for one week with a topical AhR pathway agonist, with ears taken for examination at Day 7. Ears were recovered and fixed in formalin, paraffin embedded and then sections were prepared and positioned on slides for immunohistochemical staining. The specific antibody used in this instance was rabbit anti-rat CYP1A1 polyclonal antibody (Millipore AB1247). The AhR pathway agonists used in the example in FIG. 2 were as follows: • 1B) 6-formylindolo[3,2-b]carbozole (NSA4/FICZ); • 2B) 8,13-Dihydroindolo[2′,3′:3,4]pyrido[2,1-b]quinazolin-5(7H)-one (NSA1/rutecarpine); • 3B) 3-phenyl-1H-benzo[f]chromen-1-one (NSA2); • 4B)_2,3,7,8-tetrachlorodibenzo-p-dioxin (NSA3/TCDD).
In addition to the particular topography of the isthmus region, these cells are characterized by the expression of L-RIG1, a marker of isthmic multi-potent clonogenic cells (Jensen et al. (2009),).

sebum = assay: Sebosuppressive activity on human skin (sebumetric casual level, sebutape, clinical observation); assay type: in vivo, man; conditions: for Sebosuppressive activity in man (reduction in sebum): NSA-1, NSA-2, NSA-8, NSA-9 tested at 0.5%
Experimental: The sebum inhibition index is calculated by counting the number of mature and differentiated cells in relation to the total number of cells in the sebaceous glands. A decrease in mature and differentiated cells indicates blocking of sebogenesis. The effect on human skin is determined by sebumetric examination using what is known as the “casual level” (Dobrev (2007)).

AhR (CYP1A1 induction) = biological target: T1, AhR (CYP1A1 induction) (Homo sapiens, UniProt P35869); assay: EROD (ethoxyresorufin-O-deethylase) assay, CYP1A1 induction as reporter of AhR activation in vitro; assay type: cell-based; conditions: at 10 μM
T1 construct: endogenous in cells
T1 sequence (P35869 11-848): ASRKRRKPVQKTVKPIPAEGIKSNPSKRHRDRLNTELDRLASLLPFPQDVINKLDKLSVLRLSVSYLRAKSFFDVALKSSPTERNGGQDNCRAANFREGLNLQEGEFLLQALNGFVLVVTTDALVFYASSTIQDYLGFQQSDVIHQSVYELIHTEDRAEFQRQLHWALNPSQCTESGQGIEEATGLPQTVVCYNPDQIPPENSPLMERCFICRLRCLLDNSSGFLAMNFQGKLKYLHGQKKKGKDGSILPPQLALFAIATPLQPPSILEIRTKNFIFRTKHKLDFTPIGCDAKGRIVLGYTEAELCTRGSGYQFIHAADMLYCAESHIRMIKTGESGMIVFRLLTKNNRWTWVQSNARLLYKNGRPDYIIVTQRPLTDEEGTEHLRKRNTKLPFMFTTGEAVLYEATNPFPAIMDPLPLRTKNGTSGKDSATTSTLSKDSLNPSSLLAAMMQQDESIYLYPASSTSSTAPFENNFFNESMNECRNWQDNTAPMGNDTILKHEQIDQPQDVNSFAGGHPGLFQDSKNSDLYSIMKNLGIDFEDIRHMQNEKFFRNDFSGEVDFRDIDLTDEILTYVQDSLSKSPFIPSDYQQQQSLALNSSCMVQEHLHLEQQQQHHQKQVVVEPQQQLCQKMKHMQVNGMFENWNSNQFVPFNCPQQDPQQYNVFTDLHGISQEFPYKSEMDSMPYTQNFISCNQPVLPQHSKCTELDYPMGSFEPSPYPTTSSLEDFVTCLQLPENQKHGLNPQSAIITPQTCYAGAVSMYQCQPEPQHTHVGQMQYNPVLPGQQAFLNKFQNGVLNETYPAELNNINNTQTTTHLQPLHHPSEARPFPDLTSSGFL
Excerpt: As used herein, the term EROD refers to the ethoxyreorufin-O-deethylase (EROD) assay which monitors the induction of the xenobiotic-metabolizing enzyme cytochrome P-450 1A1(CYP1A1) and is a widely used as a reporter for measuring activation of the AhR in vitro (Zamaratskaia et al. (2009), Behnisch et al. (2001),)

[2] = system: FADS2, AWAT1, ELOVL3 mRNA; assay: Real-Time QRT-PCR of mRNA of sebogenic enzymes in ears of mice treated for five weeks; assay type: in vivo, C57BL/6 mice; conditions: mouse ears, 0.5% in acetone (TCDD 0.0005%), vs vehicle
Excerpt: At the end of that time the animals were sacrificed and the ears removed for further analysis.

sebaceous glands = assay: Dose effect in mice: sebosuppressive effect and tolerability of topical treatment of the ears; assay type: in vivo
Experimental: For these dose-effects tests, C57BL/6 mice were treated for three to five weeks, five days per week on the ears and in three concentrations, namely 0.1, 0.5, and 1% of NSA-2. The sebosuppressive effect was analyzed at the third week although expression thereof starts after one week.
Drug tolerability, in the absence of MADISH-type cyst production, was assessed after five weeks' treatment.

[3] = Blood assay by HPLC in topically treated mice; assay type: in vivo, C57BL/6 mice; conditions: 5 nM sensitivity
[4] = in rodents; Adedoyin et al. (1993); cited from earlier work
[5] = in vivo; cited from earlier work

| SMILES | Activation of the AhR pathway (CYP1A1 staining) in the sebaceous cell sub-populations, stage reached ([1]; mouse, in vivo) | Sebosuppressive activity in man (reduction in sebum) (sebum) | Inhibition of mRNA expression encoding the three sebogenic enzymes (FADS2, AWAT1, ELOVL3) [2] | further results |
| --- | --- | --- | --- | --- |
| O=c1c2ccccc2nc2n1CCc1c-2[nH]c2ccccc12 [NSA 1, 8,13-Dihydroindolo[2′,3′:3,4]pyrido[2,1-b]quinazolin-5(7H)-one] | activates the AhR pathway in two of the cell sub-populations in mice | potentially useful sebosuppressive activity in man when tested at the same concentrations (0.5%), although weaker than that of NSA-2 | – | – |
| O=c1cc(-c2ccccc2)oc2ccc3ccccc3c12 [NSA 2, 3-phenyl-1H-benzo[f]chromen-1-one] | activate the AhR pathway in the four cell sub-populations within a period of less than one week | strongest sebosuppressive activity in man; also recorded: active in reducing sebum | major inhibition | AhR activation in the standard EROD assay, % of the level of induction seen with 0.01 μM TCDD (AhR (CYP1A1 induction)): 10-20%; Sebosuppressive effect in mice (active sebaceous glands, gland surface, ratios of sebocytes; FIGS. 5-8) (sebaceous glands; 0.1, 0.5 and 1%, ears, five days per week, analyzed at the third week): very marked effects; also recorded: a reduction in the differentiated compartment of the gland was observed; MADISH-type cystic lesions (sebaceous glands; after five weeks' treatment, any concentration tested): No cystic lesion were observed; Tolerability in mice (sebaceous glands; mouse, in vivo): good tolerability; Blood level by HPLC [3]: < 5 nM; half-life [4]: less than 45 mins |
| Clc1cc2c(cc1Cl)Oc1cc(Cl)c(Cl)cc1O2 [NSA 3, 2,3,7,8-tetrachlorodibenzo-p-dioxin] | – | strongest sebosuppressive activity in man | degree of specific gene suppression seen with NSA-2 is equivalent to that seen with the structurally unrelated compound NSA-3 | Activation of the AhR pathway (CYP1A1 staining) in the sebaceous cell sub-populations, stage reached ([1]; mice, topical, first week of treatment): activate the AhR pathway in the four cell sub-populations within a period of less than one week; half-life [5]: measureable in years |
| O=Cc1c2c(cc3c1=Nc1ccccc1-3)=Nc1ccccc1-2 [NSA 4, 6-formylindolo[3,2-b]carbazole] | limited distribution in the sebaceous glands when compared with NSA-2 | – | – | – |
| COc1ccc2nc([S@@+]([O-])Cc3ncc(C)c(OC)c3C)[nH]c2c1 [NSA 7, (S)-5-methoxy-2-[(4-methoxy-3,5-dimethylpyridin-2-yl)methylsulfinyl]-3H-benzoimidazole] | only activates the AhR receptor pathways in Stage One of the cell sub-populations | – | – | Sebosuppressive activity in man (sebum; tested at 8%): no sebosuppressive activity in man |
| O=c1cc(-c2ccccc2)oc2c1ccc1ccccc12 [NSA-8, 2-phenyl-4H-benzo[h]chromen-4-one] | – | neither 2-phenyl-4H-benzo[h]chromen-4-one nor 2-phenyl-4H-chromen-4-one exhibited any reduction in sebum | slightly stimulating effect | – |
| O=c1cc(-c2ccccc2)oc2ccccc12 [NSA-9, 2-phenyl-4H-chromen-4-one] | – | neither 2-phenyl-4H-benzo[h]chromen-4-one nor 2-phenyl-4H-chromen-4-one exhibited any reduction in sebum | no significant effect | – |
